Source: patent publication US9127044B2, “Cyclic depsipeptides” (NOVARTIS AG, priority 2007, dated 2015)
Several values for one entry are separate records, joined by “and”; a condition that tells them apart may be missing. Identical values can stand only once.

What was measured:
[1] = biological target: T1, Human neutrophil elastase (Homo sapiens, UniProt P08246); assay: HNE inhibitory activity in vitro (fluorescence-quenched substrate); format: biochemical
T1 construct: purchased Elastin Products Company, Inc. (EPC, Owensville, USA) SE563
T1 sequence (P08246 30-267): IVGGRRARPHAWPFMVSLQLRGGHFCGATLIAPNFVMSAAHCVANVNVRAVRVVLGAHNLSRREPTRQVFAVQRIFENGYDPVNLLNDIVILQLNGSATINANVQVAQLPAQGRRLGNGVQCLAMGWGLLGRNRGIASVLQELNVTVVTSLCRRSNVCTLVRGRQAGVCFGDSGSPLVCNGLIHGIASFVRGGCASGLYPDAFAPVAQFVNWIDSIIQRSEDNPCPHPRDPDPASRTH

hairless SKH1 mice = assay: Test on recovery of skin barrier disruption in mice (TEWL); format: in vivo; conditions: 10 mM
Procedure: The procedure was completed when transepidermal water loss (TEWL) achieved ≧40 mg/cm^2/h. TEWL was assessed with a Tewameter TM210 (Courage Khazaka, Cologne, Del.). Immediately after barrier disruption 30 μl the test compound was applied at 10 mM concentration. Control animals were treated similarly with the solvent (ethanol/propylene glycol, 3/7 (v/v)) alone. TEWL was measured before, immediately after, and at 3 hrs after barrier disruption. In each animal, the percentage recovery was calculated using the formula: (1−[TEWL at 3 hrs−base line TEWL]/[TEWL immediately after stripping−base line TEWL])×100%.

Crl:NMRI mice = assay: Anti-inflammatory activity in murine model of allergic contact dermatitis (ACD), oxazolone; format: in vivo; conditions: for Δ Auricular weights Mean (SD): 10 μl topical 30 min after challenge, n: 8 animals per group; for % Inhibition of inflammatory swelling Mean ± SE: single topical application, p<0.001 vs solvent-treated animals
Procedure: Method: Crl:NMRI mice were sensitized on the shaved abdomen with 50 μl of 2% oxazolone on day 1 and challenged with 10 μl oxazolone on the inner surface of the right ear on day 8. The unchallenged left ears served as normal controls and dermatitis was evaluated from the difference in auricular weight (taken as a measure of inflammatory swelling) on day 9. The animals were treated topically with 10 μl test compound or the solvent only 30 min after the challenge. The efficacy of the treatment was calculated as the percentage inhibition of inflammatory auricular swelling relative to animals treated with the vehicle alone.

[2] = system: Swine Model of Allergic Contact Dermatitis (ACD); assay: Anti-inflammatory activity in swine model of allergic contact dermatitis (ACD), DNFB; format: in vivo
Procedure: Eight days before the elicitation of the ACD, […] of 10% 2,4-dinitrofluorobenzene (DNFB, dissolved in DMSO/acetone/olive oil [1/5/3, v/v/v]) were applied epicutaneously in divided volumes onto the basis of both ears and onto both groins (100 μl/site) for sensitization. The challenge reactions were elicited with 15 μl of DNFB (1.0%) on contralateral test sites (each 7 cm^2 in size) of the shaved dorsolateral back. For treatment, the test compound and the placebo (solvent only) were applied contralaterally to 2 test sites in each animal 0.5 and 6 hrs after the challenge. The test sites were clinically examined 24 hrs after the challenge when inflammation peaked. The changes were scored on a scale from 0 to 4 (Table 15), allowing a combined maximal score of 12 per designated site. Skin reddening was measured reflectometrically using a* values.

With CCC(C)[C@@H]1NC(=O)[C@H](Cc2ccc(O)cc2)N(C)C(=O)[C@H](C(C)CC)N2C(=O)C(CC[C@@H]2O)NC(=O)[C@H](CC(C)C)NC(=O)[C@@H](NC(=O)[C@H](CCC(N)=O)NC(=O)C(C)C)[C@@H](C)OC1=O (stereo partly shown) [formula II] the IC50 [1] was 10 nM, the “% Recovery in barrier disruption Mean (SD values)” value (hairless SKH1 mice; 30 μl topical, TEWL at 3 hrs, n: 4 animals per group) was 72.0 (9.1) % and the “acceleration of barrier repair compared to repair in mice treated with the solvent alone” value (hairless SKH1 mice; single topical application, 3 hrs after barrier disruption, p<0.05) was 57%. The “Δ Auricular weights Mean (SD)” value (Crl:NMRI mice; 10 mM) was 17.0 (4.8), the “% Inhibition of inflammatory swelling Mean ± SE” value (Crl:NMRI mice; 10 mM) was 40% and 40 ± 6.9% and the “Δ Auricular weights Mean (SD)” value (Crl:NMRI mice; 30 mM) was 15.3 (5.4). For the same molecule, the “% Inhibition of inflammatory swelling Mean ± SE” value (Crl:NMRI mice; 30 mM) was 46% and 46 ± 7.5%, the “A* value (Mean), skin reddening measured reflectometrically” value ([2]; 1% solution applied 0.5 and 6 hrs after challenge, 24 hrs, n: 8 test sites) was 8.6 and the “Clinical score (Mean)” value ([2]; 1% solution applied 0.5 and 6 hrs after challenge, scored at 24 hrs, maximal score 12, n: 8 test sites) was 5.1. The “Inhibition vs placebo-treated sites, A* value” ([2]; Table 16, 1% test compound) was 27.0, the “Inhibition vs placebo-treated sites, clinical score” value ([2]; Table 16, 1% test compound) was 29.9 and the “inhibition of clinical inflammatory changes” value ([2]; treated twice with 1% solution, p<0.01) was 30%. The “inhibition of measured skin redness” value ([2]; treated twice with 1% solution, p<0.05) was 27%.
